The values below come from patent US10639284B2, “Immunomodulator compounds” (CHEMOCENTRYX, INC., priority 2016, dated 2020).

In general, IC50 refers to the concentration that inhibits the measured activity by half.

The target of this experiment is human PD-L1 / Human PD-1 (Homo sapiens (Human), UniProt Q9NZQ7). The experiment can be described thus: Enzyme-Linked Immunosorbent Assay (ELISA), PD-1/PD-L1 binding. Conditions: plate-coated human PD-L1, biotinylated human PD-1, read-out: ELISA IC50. On the procedure: Plates were coated with 1 μg/mL of human PD-L1 (obtained from R&D) in PBS overnight at 4° C. The wells were then blocked with PBS containing 2% BSA in PBS (W/V) with 0.05% TWEEN-20 for 1 hour at 37° C. The plates were washed 3 times with PBS/0.05% TWEEN-20 and the samples were diluted to 1:5 in dilution medium in the ELISA plates. Human PD-1 and biotin 0.3 μg/mL (ACRO Biosystems) were added and incubated for 1 hour at 37° C. then washed 3 times with PBS/0.05% TWEEN-20. A second block was added with PBS containing 2% BSA in PBS (W/V)/0.05% TWEEN-20 for 10 min at 37° C. and was washed 3 times with PBS/0.05% TWEEN-20. Streptavidin-HRP was added for 1 hour at 37° C. then washed 3 times with PBS/0.05% TWEEN-20. TMB substrate was added and reacted for 20 min at 37° C. A stop solution (2 N aqueous H2SO4) was added. The absorbance was read at 450 nm using a micro-plate spectrophotometer.
human PD-L1 / Human PD-1, sequence (Q9NZQ7 19-239): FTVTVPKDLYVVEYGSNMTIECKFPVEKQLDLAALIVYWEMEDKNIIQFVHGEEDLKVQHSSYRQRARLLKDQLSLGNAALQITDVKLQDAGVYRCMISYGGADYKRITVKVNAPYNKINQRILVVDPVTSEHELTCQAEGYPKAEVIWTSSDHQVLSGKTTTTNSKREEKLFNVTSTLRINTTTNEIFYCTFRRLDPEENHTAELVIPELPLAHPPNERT
Compounds in Table 2 and Table 3 were prepared by methods as described in the Examples, and evaluated according to the assay below.
A general note: ELISA stands for enzyme-linked immunosorbent assay.

Read-outs that look alike come from different tables or passages of the source.

With `COC(=O)Cc1ccccc1-c1cccc2c1CC[C@@H]2Oc1cc(OCc2cncc(C#N)c2)c(CN[C@@H](CO)C(=O)O)cc1Cl` [Example 3.078], the IC50 (Table 3) lay in the range of 500 to 20000 nM.

In the case of `CCN(CC)CCCC(C)NCc1cc(Cl)c(O[C@H]2CCc3c(-c4ccccc4F)cccc32)cc1OCc1cncc(C#N)c1` (stereo partly drawn) [Example 3.074], the IC50 (Table 3) is below 100 nM. Regarding `CCCOc1cc(O[C@H]2CCc3c(-c4ccccc4F)cccc32)c(Cl)cc1CN[C@@H](CO)C(=O)O` [Example 2.074], under “Table 2”, the IC50 lay in the range of 100 to 500 nM.

As to `N#Cc1cncc(COc2cc(O[C@H]3CCc4c(-c5ccc6c(c5F)OCCO6)cccc43)c(Cl)cc2CN[C@H](CO)C(=O)O)c1` [Example 3.054], under “Table 3”, the IC50 is below 100 nM. With `N#Cc1cncc(COc2cc(O[C@H]3CCc4c(-c5ccccc5Cl)cccc43)c(Cl)cc2CN[C@@H](CO)C(=O)O)c1` [Example 2.005], the IC50 (Table 2) is below 100 nM. For `CC(C)OC(=O)[C@@H](NCc1cc(Cl)c(O[C@H]2CCc3c(-c4ccc5c(c4F)OCCO5)cccc32)cc1OCc1cncc(C#N)c1)[C@@H](C)O` [Example 3.045], the IC50 (Table 3) is 500 to 20000 nM. For the compound `N#Cc1cncc(COc2cc(O[C@H]3CCc4c(-c5ccccc5F)cccc43)c(Cl)cc2CN[C@H](C(=O)O)c2ccccc2)c1` [Example 2.178], the IC50 (Table 2) lay in the range of 100 to 500 nM. Same read-out and setting: next, `CN(C)c1cccc(-c2cccc3c2CC[C@@H]3Oc2cc(OCc3cncc(C#N)c3)c(CN[C@@H](CO)C(=O)O)cc2Cl)c1` [Example 2.027]: 500 to 20000 nM. On to `N#Cc1cncc(COc2cc(O[C@H]3CCc4c(-c5ccccc5F)cccc43)c(Cl)cc2CNCc2cccnn2)c1` [Example 3.084], for which, where the note is “Table 3”, the IC50 was below 100 nM. Still for that read-out and setting: the figure for `N#Cc1cncc(COc2cc(O[C@H]3CCc4c(-c5ccc6c(c5F)OCCO6)cccc43)c(Cl)cc2CN[C@H]2CONC2=O)c1` [Example 3.042] is 500 to 20000 nM; for `Cn1cnc(CNCc2cc(Cl)c(O[C@H]3CCc4c(-c5ccccc5F)cccc43)cc2OCc2cncc(C#N)c2)c1` [Example 3.091] it is below 100 nM. The same measure, in the same setting: next, `C[C@@](CO)(NCc1cc(Cl)c(O[C@@H]2CCc3c(-c4ccccc4F)cccc32)cc1OCc1cncc(C#N)c1)C(=O)O` [Example 3.119]: below 100 nM.

On to `COc1cc(O[C@H]2CCc3c(-c4cccc(OC)c4F)cccc32)c(Cl)cc1CN1CC(O)C1` [Example 2.041], for which the IC50 (Table 2) was in the range of 500 to 20000 nM. The same measure, in the same setting: the figure for `Cc1ccccc1-c1cccc2c1CC[C@@H]2Oc1cc(OCc2cncc(C#N)c2)c(CN[C@@H](CO)C(=O)O)cc1Cl` [Example 2.006] is below 100 nM. On to `N#Cc1cncc(COc2cc(O[C@H]3CCc4c(-c5ccccc5F)cccc43)c(Cl)cc2CNCCO)c1` [Example 3.128], for which the IC50 (Table 3) is below 100 nM. Turning to `COc1cccc(-c2cccc3c2CCC3Oc2cc(OCc3cncc(C#N)c3)c(CNCCC(N)=O)cc2Cl)c1F` (stereo not drawn) [Example 2.080], the IC50 (Table 2) lay within 100 to 500 nM. Same read-out and setting: next, `CC1(O)CCN(Cc2cc(Cl)c(O[C@H]3CCc4c(-c5ccccc5F)cccc43)cc2OCc2cncc(C#N)c2)CC1` [Example 2.075]: 100 to 500 nM. Still for that read-out and setting: the figure for `COC(=O)[C@H](CO)NCc1cc(Cl)c(O[C@H]2CCc3c(-c4ccccc4F)cccc32)cc1OCc1cncc(C#N)c1` [Example 2.140] is below 100 nM; for `N#Cc1cncc(COc2cc(O[C@H]3CCc4c(-c5ccccc5F)cccc43)c(Cl)cc2CN2CC(O)(C(=O)O)C2)c1` [Example 2.018] it is 100 to 500 nM. For `C[C@H](NCc1cc(Cl)c(O[C@H]2CCc3c(-c4ccccc4F)cccc32)cc1OCc1cncc(C#N)c1)C(=O)NCC(=O)O` [Example 3.058], the IC50 (Table 3) fell in the range of 100 to 500 nM. For the compound `C[C@@](CO)(NCc1cc(Cl)c(O[C@H]2CCc3c(-c4ccc5c(c4F)OCCO5)cccc32)cc1OCc1cncc(C#N)c1)C(=O)O` [Example 3.009], for the setting “Table 3”, the 50% inhibitory concentration (IC50) is below 100 nM. The same measure, in the same setting: next, `N#Cc1cncc(COc2cc(O[C@H]3CCc4c(-c5ccccc5F)cccc43)c(Cl)cc2CNCCCN2CCS(=O)(=O)CC2)c1` [Example 3.051]: 100 to 500 nM; `NCCCC[C@H](NCc1cc(Cl)c(O[C@H]2CCc3c(-c4ccccc4F)cccc32)cc1OCc1cncc(C(=O)O)c1)C(=O)O` [Example 3.023]: 100 to 500 nM; `CCc1cc(CNCc2cc(Cl)c(O[C@H]3CCc4c(-c5ccccc5F)cccc43)cc2OCc2cncc(C#N)c2)on1` [Example 3.085]: 500 to 20000 nM. On the same count and under the same terms, next, `N#Cc1cncc(COc2cc(O[C@H]3CCc4c(-c5ccccc5F)cccc43)c(Cl)cc2CNCc2ccc(C(N)=O)cc2)c1` [Example 3.092]: 100 to 500 nM.

Consider `CC(C)C[C@H](NCc1cc(Cl)c(O[C@H]2CCc3c(-c4ccccc4F)cccc32)cc1OCc1cncc(C#N)c1)C(=O)O` [Example 2.092], for which, under “Table 2”, the IC50 fell in the range of 100 to 500 nM.

Turning to `N#Cc1cncc(COc2cc(O[C@H]3CCc4c(-c5ccc6c(c5F)OCCO6)cccc43)c(Cl)cc2CN2CC(O)C2)c1` [Example 2.070], where the note is “Table 2”, the half-inhibitory concentration (IC50) is below 100 nM. Same read-out and setting: next, `N#Cc1cncc(COc2cc(O[C@H]3CCc4c(-c5ccc(Cl)c(Cl)c5)cccc43)c(Cl)cc2CN[C@@H](CO)C(=O)O)c1` [Example 2.016]: 500 to 20000 nM; `N#Cc1cncc(COc2cc(O[C@H]3CCc4c(-c5ccccc5)cccc43)c(Cl)cc2CNCCn2nn[nH]c2=O)c1` [Example 1.010]: 100 to 500 nM.

In the case of `COc1cccc(-c2cccc3c2CC[C@@H]3Oc2cc(OCc3cncc(C#N)c3)c(CN3CC(O)C(C(=O)O)C3)cc2Cl)c1F` (stereo partly drawn) [Example 2.064], the IC50 (Table 2) was below 100 nM. In the case of `CC(C)OC(=O)[C@H](CO)NCc1cc(Cl)c(O[C@H]2CCc3c(-c4ccc5c(c4F)OCCO5)cccc32)cc1OCc1cncc(C#N)c1` [Example 3.046], the IC50 (Table 3) fell in the range of 500 to 20000 nM. Turning to `N#Cc1cncc(COc2cc(O[C@H]3CCc4c(-c5ccc(CO)cc5)cccc43)c(Cl)cc2CN[C@@H](CO)C(=O)O)c1` [Example 3.123], the IC50 (Table 3) lay in the range of 500 to 20000 nM. Regarding `N#Cc1cncc(COc2cc(O[C@H]3CCc4c(-c5ccccc5F)cccc43)c(Cl)cc2CNCCCCN(CCO)CCO)c1` [Example 3.088], the IC50 (Table 3) lay in the range of 100 to 500 nM. In the case of `COc1cccc(F)c1-c1cccc2c1CC[C@@H]2Oc1cc(OCc2cncc(C#N)c2)c(CN[C@@H](CO)C(=O)O)cc1Cl` [Example 2.105], for the setting “Table 2”, the IC50 was in the range of 100 to 500 nM. Regarding `COc1cccc(-c2cccc3c2CC[C@@H]3Oc2cc(OCc3cncc(C#N)c3)c(CNCC(C)(C)O)cc2Cl)c1F` [Example 2.142], the half-maximal inhibitory concentration (IC50) (Table 2) was in the range of 100 to 500 nM. `N#Cc1cc(Cl)cc(COc2cc(O[C@H]3CCc4c(-c5ccc6c(c5F)OCCO6)cccc43)c(Cl)cc2CN[C@@H](CO)C(=O)O)c1` [Example 3.015]: for the setting “Table 3”, the IC50 was below 100 nM. Consider `Cc1cc(-c2cccc3c2CC[C@@H]3Oc2cc(OCc3cncc(C#N)c3)c(CN[C@@H](CO)C(=O)O)cc2Cl)ccc1N(C)C` [Example 2.026], for which, under “Table 2”, the IC50 fell in the range of 500 to 20000 nM.

Turning to `COc1cccc(-c2cccc3c2CC[C@@H]3Oc2cc(OCc3cncc(C#N)c3)c(CN[C@@H](CO)C(=O)O)cc2Cl)c1Cl` [Example 2.043], for the setting “Table 2”, the IC50 was below 100 nM.

As to `O=C(O)[C@H](CO)NCc1cc(Cl)c(O[C@H]2CCc3c(-c4ccccc4F)cccc32)cc1OCc1cnc(Cl)nc1` [Example 2.084], the IC50 (Table 2) was below 100 nM. Regarding `N#Cc1cncc(COc2cc(O[C@H]3CCc4c(-c5ccccc5F)cccc43)c(Cl)cc2CN[C@@H](Cc2c[nH]cn2)C(=O)O)c1` [Example 3.103], the IC50 (Table 3) lay within 100 to 500 nM. Same read-out and setting: next, `Cc1cc(C#N)cc(COc2cc(O[C@H]3CCc4c(-c5ccccc5F)cccc43)c(Cl)cc2CN[C@@H](CO)C(=O)O)c1` [Example 3.055]: 100 to 500 nM. As for `NC(=O)COc1cc(O[C@H]2CCc3c(-c4ccccc4F)cccc32)c(Cl)cc1CN[C@@H](CO)C(=O)O` [Example 2.124], the IC50 (Table 2) is 500 to 20000 nM.

For the compound `N#Cc1cncc(COc2cc(O[C@H]3CCc4c(-c5ccccc5F)cccc43)c(Cl)cc2CN[C@H](C(=O)O)[C@H](O)c2ccccc2)c1` [Example 2.132], the half-inhibitory concentration (IC50) (Table 2) is 100 to 500 nM. Still for that read-out and setting: the figure for `N#Cc1cncc(COc2cc(O[C@H]3CCc4c(-c5ccccc5F)cccc43)c(Cl)cc2CNCC(=O)NO)c1` [Example 2.151] is 500 to 20000 nM.

On to `N#Cc1cncc(COc2cc(O[C@H]3CCc4c(-c5ccccc5F)cccc43)c(Cl)cc2CN[C@@H](CO)C(=O)NCC(=O)O)c1` [Example 3.044], for which the IC50 (Table 3) is below 100 nM.

Take `N#Cc1cncc(COc2cc(O[C@H]3CCc4c(-c5ccccc5F)cccc43)c(Cl)cc2CN2CC3(CC(O)C3)C2)c1` [Example 2.119]: where the note is “Table 2”, the IC50 lay within 100 to 500 nM. Same read-out and setting: the figure for `C[C@@H](O)[C@H](NCc1cc(Cl)c(O[C@H]2CCc3c(-c4ccccc4F)cccc32)cc1OCc1cncc(C#N)c1)C(=O)O` [Example 2.100] is below 100 nM. With `O=C(O)[C@H](CO)NCc1cc(Cl)c(O[C@H]2CCc3c(-c4ccc5c(c4F)OCCO5)cccc32)cc1OCc1cncc(Cl)c1` [Example 3.027], the concentration for half-maximal inhibition (IC50) (Table 3) is below 100 nM. The same measure, in the same setting: the figure for `CS(=O)(=O)c1cc(COc2cc(O[C@H]3CCc4c(-c5ccccc5F)cccc43)c(Cl)cc2CN[C@@H](CO)C(=O)O)cc(S(C)(=O)=O)c1` [Example 3.001] is below 100 nM; for `N#Cc1cncc(COc2cc(O[C@H]3CCc4c(-c5ccccc5F)cccc43)c(Cl)cc2CNCC(=O)NCC(=O)O)c1` [Example 3.062] it is below 100 nM; for `N#Cc1cncc(COc2cc(O[C@H]3CCc4c(-c5ccccc5F)cccc43)c(Cl)cc2CNCCN2CCCCC2CO)c1` (stereo partly drawn) [Example 3.077] it is 100 to 500 nM.
